23 compounds from patent US11999716B2, “WDR5 inhibitors and modulators” (priority 2018, dated 2024) can be followed below.

The experiment has as its system MV4:11 human cancer cell lines. Kind of experiment: Cellular viability / anti-proliferative activity, CellTiter-Glo, 5 day protocol. In kind it is cell-based. The settings on record: Homo sapiens, MV4-11, 120 h, MV4:11 cells; 5 day incubation; CellTiter-Glo; mean of minimum two replicates; read-out: GI50 on cellular proliferation of MV4:11 human cancer cell lines. As to the method: Cellular Viability of Human Tumor Cell Lines
Anti proliferative activity using MLL-harboring cell lines. […] Viability assays are performed by dispensing 200 cells at 7200 cells/mL into each well of an opaque 384-well plate and adding compounds at the indicated concentrations in a final volume of 32 μL and a final concentration of DMSO of 0.3% for all samples. A certain range of compound concentrations is made through a series of 2-fold dilutions starting 30 μM at the highest, total 22 dilutions. After a set incubation period, 5 day protocol, the viability of cells in each well is assessed using the CellTiter-Glo assay (Promega), read on a 96 Microplane Luminometer (Cytation 3, BioTek). Serial dilutions of each cell type are performed in all assays to generate standard curves and the final densities of cells are determined within the dynamic range of the instrument. GI50 values are calculated based on XLfit software (IDBS, Guildford, UK) with Sigmoidal Dose-Response Model. Each compound is tested in minimum of two replicates. Data are expressed as mean.
A general note: Cellular ATP, detected with luciferase, serves as a proxy for viable cell number.
Turning to `CCn1cc(-c2cc(Cn3ccn(C)c3=N)cc3c2CCN(Cc2cc(OC)ccn2)C3=O)cn1` [Example 49, 5-(1-Ethyl-1H-pyrazol-4-yl)-7-((2-imino-3-methyl-2,3-dihydro-1H-imidazol-1-yl)methyl)-2-((4-methoxypyridin-2-yl)methyl)-3,4-dihydroisoquinolin-1(2H)-one], the GI50 came out at 906 nM.

On to `CCn1cc(-c2cc(Cn3ccn(C4CC4)c3=N)cc3c2CCN(Cc2cc(OC)ccn2)C3=O)cn1` [Example 50, 7-((3-Cyclopropyl-2-imino-2,3-dihydro-1H-imidazol-1-yl)methyl)-5-(1-ethyl-1H-pyrazol-4-yl)-2-((4-methoxypyridin-2-yl)methyl)-3,4-dihydroisoquinolin-1(2H)-one], for which the GI50 was over 938 nM.

For the compound `Cc1ccnc(CN2CCc3c(cc(Cn4ccn(C5CC5)c4=N)cc3-c3cn(C)nc3C(F)(F)F)C2=O)c1` [Example 51, 7-((3-Cyclopropyl-2-imino-2,3-dihydro-1H-imidazol-1-yl)methyl)-5-(1-methyl-3-(trifluoromethyl)-1H-pyrazol-4-yl)-2-((4-methylpyridin-2-yl)methyl)-3,4-dihydroisoquinolin-1(2H)-one], the GI50 was under 50 nM.

As for `COc1ccnc(CN2CCc3c(cc(Cn4ccn(C)c4=N)cc3-c3ccc(F)cc3C)C2=O)c1` [Example 52, 5-(4-fluoro-2-methylphenyl)-7-((2-imino-3-methyl-2,3-dihydro-1H-imidazol-1-yl)methyl)-2-((4-methoxypyridin-2-yl)methyl)-3,4-dihydroisoquinolin-1(2H)-one], the GI50 is under 50 nM.

As for `Cc1ccnc(CN2CCc3c(cc(Cn4ccn(C)c4=N)cc3-c3cn(C)nc3C(F)(F)F)C2=O)c1` [Example 53, 7-((2-Imino-3-methyl-2,3-dihydro-1H-imidazol-1-yl)methyl)-5-(1-methyl-3-(trifluoromethyl)-1H-pyrazol-4-yl)-2-((4-methylpyridin-2-yl)methyl)-3,4-dihydroisoquinolin-1(2H)-one], the GI50 is under 50 nM.

`COc1ccnc(CN2CCc3c(cc(Cn4ccn(C)c4=N)cc3C3CC3)C2=O)c1` [Example 54, 5-Cyclopropyl-7-((2-imino-3-methyl-2,3-dihydro-1H-imidazol-1-yl)methyl)-2-((4-methoxypyridin-2-yl)methyl)-3,4-dihydroisoquinolin-1(2H)-one]: the GI50 came out at 880 nM.

For the compound `CCn1cc(-c2cc(CN3CCN(C)C3=N)cc3c2CCN(Cc2cc(OC)ccn2)C3=O)c(C(F)(F)F)n1` [Example 55, 5-(1-Ethyl-3-(trifluoromethyl)-1H-pyrazol-4-yl)-7-((2-imino-3-methylimidazolidin-1-yl)methyl)-2-((4-methoxypyridin-2-yl)methyl)-3,4-dihydroisoquinolin-1(2H)-one], the GI50 was under 50 nM.

As for `CCn1cc(-c2cc(Cn3cc4n(c3=N)CCC4)cc3c2CCN(Cc2cc(OC)ccn2)C3=O)c(C(F)(F)F)n1` [Example 56, 5-(1-Ethyl-3-(trifluoromethyl)-1H-pyrazol-4-yl)-7-((3-imino-6,7-dihydro-3H-pyrrolo[1,2-c]imidazol-2(5H)-yl)methyl)-2-((4-methoxypyridin-2-yl)methyl)-3,4-dihydroisoquinolin-1(2H)-one], the GI50 stood at 870 nM.

Turning to `CCn1cc(-c2cc(Cn3ccn(C)c3=N)cc3c2CCN(Cc2cc(OC)ccn2)C3=O)c(C(F)(F)F)n1` [Example 57, 5-(1-Ethyl-3-(trifluoromethyl)-1H-pyrazol-4-yl)-7-((2-imino-3-methyl-2,3-dihydro-1H-imidazol-1-yl)methyl)-2-((4-methoxypyridin-2-yl)methyl)-3,4-dihydroisoquinolin-1(2H)-one], the GI50 was 50 nM.

Turning to `CCn1cc(-c2cc(Cn3ccn(C4CC4)c3=N)cc3c2CCN(Cc2cc(OC)ccn2)C3=O)c(C(F)(F)F)n1` [Example 58, 7-((3-Cyclopropyl-2-imino-2,3-dihydro-1H-imidazol-1-yl)methyl)-5-(1-ethyl-3-(trifluoromethyl)-1H-pyrazol-4-yl)-2-((4-methoxypyridin-2-yl)methyl)-3,4-dihydroisoquinolin-1(2H)-one], the GI50 came to 54 nM.

`COc1cc(CN2CCc3c(cc(Cn4ccn(C)c4=N)cc3-c3ncc(F)cc3C)C2=O)cc(OC)c1` [Example 59, 2-(3,5-Dimethoxybenzyl)-5-(5-fluoro-3-methylpyridin-2-yl)-7-((2-imino-3-methyl-2,3-dihydro-1H-imidazol-1-yl)methyl)-3,4-dihydroisoquinolin-1(2H)-one]: the GI50 worked out at 274 nM.

In the case of `COc1ccnc(CN2CCc3c(cc(Cn4ccn(C)c4=N)cc3-c3cccnc3C)C2=O)c1` [Example 60, 7-((2-Imino-3-methyl-2,3-dihydro-1H-imidazol-1-yl)methyl)-2-((4-methoxypyridin-2-yl)methyl)-5-(2-methylpyridin-3-yl)-3,4-dihydroisoquinolin-1(2H)-one], the GI50 is over 938 nM.

Take `COc1ccnc(CN2CCc3c(cc(Cn4ccn(C(F)F)c4=N)cc3-c3cn(C)nc3C(F)(F)F)C2=O)c1` [Example 61, 7-((3-(Difluoromethyl)-2-imino-2,3-dihydro-1H-imidazol-1-yl)methyl)-2-((4-methoxypyridin-2-yl)methyl)-5-(1-methyl-3-(trifluoromethyl)-1H-pyrazol-4-yl)-3,4-dihydroisoquinolin-1(2H)-one]: the GI50 is under 50 nM.

For `COc1ccnc(CN2CCc3c(cc(Cn4cc5n(c4=N)CCC5)cc3-c3cn(C)nc3C(F)(F)F)C2=O)c1` [Example 62, 7-((3-Imino-6,7-dihydro-3H-pyrrolo[1,2-c]imidazol-2(51/)-yl)methyl)-2-((4-methoxypyridin-2-yl)methyl)-5-(1-methyl-3-(trifluoromethyl)-1H-pyrazol-4-yl)-3,4-dihydroisoquinolin-1(2H)-one], the GI50 was 572 nM.

`CCn1cc(-c2cc(Cn3ccn(C)c3=N)cc3c2CCN(Cc2cc(OC)ccn2)C3=O)c(C)n1` [Example 63, 5-(1-Ethyl-3-methyl-1H-pyrazol-4-yl)-7-((2-imino-3-methyl-2,3-dihydro-1H-imidazol-1-yl)methyl)-2-((4-methoxypyridin-2-yl)methyl)-3,4-dihydroisoquinolin-1(2H)-one]: the GI50 was determined as 274 nM.

For `COc1cc(CN2CCc3c(cc(Cn4ccn(C)c4=N)cc3-c3c(C)nn(C)c3C)C2=O)cc(OC)c1` [Example 64, 2-(3,5-Dimethoxybenzyl)-7-((2-imino-3-methyl-2,3-dihydro-1H-imidazol-1-yl)methyl)-5-(1,3,5-trimethyl-1H-pyrazol-4-yl)-3,4-dihydroisoquinolin-1(2H)-one], the GI50 was over 938 nM.

As to `COc1ccnc(CN2CCc3c(cc(Cn4ccnc4N)cc3-c3cn(C)nc3C(F)(F)F)C2=O)c1` [Example 65, 7-((2-Amino-1H-imidazol-1-yl)methyl)-2-((4-methoxypyridin-2-yl)methyl)-5-(1-methyl-3-(trifluoromethyl)-1H-pyrazol-4-yl)-3,4-dihydroisoquinolin-1(2H)-one], the GI50 is under 50 nM.

For the compound `CCn1cc(-c2cc(Cn3ccn(C)c3=N)cc3c2CCN([C@@H](C)c2cc(OC)ccn2)C3=O)c(C(F)(F)F)n1` [Example 66, (S)-5-(1-Ethyl-3-(trifluoromethyl)-1H-pyrazol-4-yl)-7-((2-imino-3-methyl-2,3-dihydro-1H-imidazol-1-yl)methyl)-2-(1-(4-methoxypyridin-2-yl)ethyl)-3,4-dihydroisoquinolin-1(2H)-one], the GI50 is under 50 nM.

Regarding `CCn1cc(-c2cc(Cn3ccn(C(F)F)c3=N)cc3c2CCN([C@@H](C)c2cc(OC)ccn2)C3=O)c(C(F)(F)F)n1` [Example 67, (S)-7-((3-(Difluoromethyl)-2-imino-2,3-dihydro-1H-imidazol-1-yl)methyl)-5-(1-ethyl-3-(trifluoromethyl)-1H-pyrazol-4-yl)-2-(1-(4-methoxypyridin-2-yl)ethyl)-3,4-dihydroisoquinolin-1(2H)-one], the GI50 was under 50 nM.

As to `COc1cc(CN2CCc3c(cc(Cn4ccn(C)c4=N)cc3-c3ccc(C)nc3C)C2=O)cc(OC)c1` [Example 68, 2-(3,5-Dimethoxybenzyl)-5-(2,6-dimethylpyridin-3-yl)-7-((2-imino-3-methyl-2,3-dihydro-1H-imidazol-1-yl)methyl)-3,4-dihydroisoquinolin-1(2H)-one], the GI50 is 333 nM.

For the compound `COc1cc(CN2CCc3c(OC4CCC4)cc(Cn4ccn(C)c4=N)cc3C2=O)cc(OC)c1` [Example 69, 5-Cyclobutoxy-2-(3,5-dimethoxybenzyl)-7-((2-imino-3-methyl-2,3-dihydro-1H-imidazol-1-yl)methyl)-3,4-dihydroisoquinolin-1(2H)-one], the GI50 amounted to 502 nM.

For the compound `COc1cc(CN2CCc3c(cc(Cn4ccn(C)c4=N)cc3-c3cn(C)nc3C)C2=O)cc(OC)c1` [Example 70, 2-(3,5-Dimethoxybenzyl)-5-(1,3-dimethyl-1H-pyrazol-4-yl)-7-((2-imino-3-methyl-2,3-dihydro-1H-imidazol-1-yl)methyl)-3,4-dihydroisoquinolin-1(2H)-one], the GI50 turned out to be 77 nM.

Turning to `COc1ccnc([C@H](C)N2CCc3c(cc(Cn4ccn(C)c4=N)cc3-c3cn(C)nc3C(F)(F)F)C2=O)c1` [Example 71, (S)-7-((2-Imino-3-methyl-2,3-dihydro-1H-imidazol-1-yl)methyl)-2-(1-(4-methoxypyridin-2-yl)ethyl)-5-(1-methyl-3-(trifluoromethyl)-1H-pyrazol-4-yl)-3,4-dihydroisoquinolin-1(2H)-one], the GI50 was under 50 nM.
